Measurements from patent publication US12370235B2, “Synthetic, non-natural antimicrobial peptides inspired by Staphylococcus auricularis delta toxin” (University of Saskatchewan, priority 2021, dated 2025).
Ends that are not written are not given here.

Experiments:
[1] = tested on: Candida duobushaemulonii AR 392; assay: MIC, YPD broth, CDC and FDA AR Candida isolate panel; type: cell-based; settings: Table 9 top part: titrations from 1.56 to 100 μg/mL
Procedure, shortened: (§1)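 Overnight standing culture at 37° C in the presence of peptide serially diluted by halves. Starting cell density corresponded to an optical density of […].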

[2] = tested on: Candida lusitaniae AR 398; assay: as above; type: cell-based; settings: Table 9 top part: titrations from 1.56 to 100 μg/mL
Procedure, shortened: as §1

[3] = tested on: Candida duobushaemulonii AR 391; assay: as above; type: cell-based; settings: Table 9 top part: titrations from 1.56 to 100 μg/mL
Procedure, shortened: as §1

[4] = tested on: Saccharomyces cerevisiae AR 399; assay: as above; type: cell-based; settings: Table 9 top part: titrations from 1.56 to 100 μg/mL
Procedure, shortened: as §1

[5] = tested on: Saccharomyces cerevisiae AR 400; assay: as above; type: cell-based; settings: Table 9 top part: titrations from 1.56 to 100 μg/mL
Procedure, shortened: as §1

[6] = tested on: Candida haemulonii AR 393; assay: as above; type: cell-based; settings: Table 9 top part: titrations from 1.56 to 100 μg/mL
Procedure, shortened: as §1

[7] = tested on: Kodamae ohmeri AR 396; assay: as above; type: cell-based; settings: Table 9 top part: titrations from 1.56 to 100 μg/mL
Procedure, shortened: as §1

[8] = tested on: Candida krusei AR 397; assay: as above; type: cell-based; settings: Table 9 top part: titrations from 1.56 to 100 μg/mL
Procedure, shortened: as §1

[9] = tested on: Candida duobushaemulonii AR 394; assay: as above; type: cell-based; settings: Table 9 top part: titrations from 1.56 to 100 μg/mL
Procedure, shortened: as §1

[10] = tested on: 3D EpiDerm skin tissues; assay: Peptide cytotoxicity, 3D EpiDerm skin tissues, alamarBlue; type: cell-based, human; settings: 250 μg/mL, 24 h
Protocol: Peptide cytotoxicity. In vitro cytotoxicity was measured using the 3D EpiDerm skin tissues and HeLa Cells using a fluorescent reporter of cell viability, alamarBlue (ThermoFisher Scientific). 3D EpiDerm skin tissues (MatTek EPI-200-AFAB) were transferred to a 12 well plate containing 600 μL of AFAB-assay medium supplemented with 10% v/v alamarBlue. […] HeLa cells were seeded in a 96-well plate (2×10^4 cells/per well) and incubated overnight at 37° C. and 5% CO2 in a humidified incubator to prepare wells at ˜50% confluency of adherent cells. After the incubation, spent DMEM was removed and cells were washed with PBS. alamarBlue-containing medium was prepared by mixing Phenol Red-free DMEM with alamarBlue solution at a 9:1 ratio and a 180 μl volume was added to each well. Cells were treated with peptides varying from 3.25 to 200 μg/mL and then incubated for 24 h. The fluorescence intensities of treated cultures were normalized to values measured for an untreated control group. After the 24 h incubation period, alamarBlue fluorescence was measured at 590 nm upon excitation at 560 nm using Varioskan Lux plate reader (Thermo Scientific) plate reader.

[11] = tested on: Mannheimia haemolytica ATCC 33393; assay: MIC, broth dilution; type: cell-based; settings: Table 11; highest concentration 25 μg/mL
Procedure, shortened: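 Peptides (95% purity) in 2-fold dilution series were mixed with M. haemolytica diluted to OD 6×10^−4 in cation-adjusted Mueller Hinton broth and incubated standing overnight at 37 °C. MIC was the lowest concentration with no visible growth.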

[12] = tested on: S. pseudintermedius canine isolate MRSP16; assay: MIC, broth dilution; type: cell-based, Staphylococcus pseudintermedius
Protocol: (§2) MIC determination. MICs were measured using peptides with 95% purity. For bacterial studies, cation-adjusted Mueller Hinton (MH) broth was used as the growth medium whereas Yeast Peptone Dextrose (YPD; 10 g/L yeast extract, 20 g/L peptone, 20 g/L dextrose) was used for Candida spp. and other yeast. Microorganisms were diluted to an optical density of […] in MH or YPD broth and a 180 μl volume was mixed with 20 μl of peptide arrayed as a 2-fold dilution series in a flat-bottom 96-well microtitre plate. A control was performed using 20 μl of sterile water. Plates were incubated as standing cultures overnight at 37° C.
(§3) Determination of minimum inhibitory concentrations. The MICs were measured for bioactive peptides identified from the initial screen. For bacterial studies, cation-adjusted Mueller Hinton (MH) broth was used as the growth medium whereas YPD was used for C. albicans. Bacterial cultures were diluted to a OD value of 6×10^−4 in MH broth and a 180 μl volume was mixed with 20 μl of peptide arrayed as 2-fold dilution series in a 96-well plate. For the positive control, 20 μl of sterile water was used. Plates were incubated as standing cultures overnight at 37° C. The lowest peptide concentration that resulted no observed microbial growth after an overnight treatment was defined as the MIC.

[13] = tested on: S. pseudintermedius canine isolate MSSP42; assay: MIC, broth dilution; type: cell-based, Staphylococcus pseudintermedius
Protocol: as §2, §3

[14] = tested on: S. pseudintermedius human isolate SPC001 (MSSP); assay: MIC, broth dilution; type: cell-based, Staphylococcus pseudintermedius
Protocol: as §2, §3

[15] = tested on: S. pseudintermedius human isolate SPC020 (MSSR); assay: MIC, broth dilution; type: cell-based, Staphylococcus pseudintermedius
Protocol: as §2, §3

[16] = tested on: S. pseudintermedius canine isolate MRSP24; assay: MIC, broth dilution; type: cell-based, Staphylococcus pseudintermedius
Protocol: as §2, §3

[17] = tested on: S. pseudintermedius human isolate SPC002 (MSSP); assay: MIC, broth dilution; type: cell-based, Staphylococcus pseudintermedius
Protocol: as §2, §3

[18] = tested on: S. aureus ATCC BAA-2094 (MRSA SCCmec type V); assay: MIC, broth dilution; type: cell-based, Staphylococcus aureus; settings: Table 5; STIP3 variants, highest concentration 100 μg/mL
Procedure, shortened: (§4)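 MIC defined as the lowest peptide level giving no growth after overnight standing incubation at 37° C. Bacteria at OD 6×10^−4 in cation-adjusted MH broth met 2-fold serial peptide dilutions; peptide purity 95%.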

[19] = tested on: S. aureus bovid isolate (RDM-1); assay: MIC, broth dilution; type: cell-based, Staphylococcus aureus; settings: clinical isolate
Procedure, shortened: as §4

[20] = tested on: S. aureus ATCC BAA-2313 (MRSA SCCmec type XI); assay: MIC, broth dilution; type: cell-based, Staphylococcus aureus; settings: Table 5; STIP3 variants, highest concentration 100 μg/mL
Procedure, shortened: as §4

[21] = tested on: S. aureus ATCC BAA-44 (MRSA SCCmec type I); assay: MIC, broth dilution; type: cell-based, Staphylococcus aureus; settings: Table 5; STIP3 variants, highest concentration 100 μg/mL
Procedure, shortened: as §4

With “TVGGLVKWILKTVKKFA-NH2 [STIP3-29, TVGGLVKWILKTVKKFA-NH2]” the “MIC (μg/mL) Candida duobushaemulonii AR 392” value [1] was 50 µg/mL, the “MIC (μg/mL) Candida lusitaniae AR 398” value [2] was 25 µg/mL and the “MIC (μg/mL) Candida duobushaemulonii AR 391” value [3] was 25 µg/mL. The “MIC (μg/mL) Saccharomyces cerevisiae AR 399” value [4] was 50 µg/mL, the “MIC (μg/mL) Saccharomyces cerevisiae AR 400” value [5] was 25 µg/mL and the “MIC (μg/mL) Candida haemulonii AR 393” value [6] was 200 µg/mL. The “MIC (μg/mL) Kodamae ohmeri AR 396” value [7] was 50 µg/mL, the “MIC (μg/mL) Candida krusei AR 397” value [8] was 50 µg/mL and the “MIC (μg/mL) Candida duobushaemulonii AR 394” value [9] was 100 µg/mL. The “indirect measure of tissue health (alamarBlue)” value [10] was “appeared to be unaffected”, the “MIC (μg/mL) M. haemolytica” value [11] was 25 µg/mL and the “MIC” value [12] was 3.13 µg/mL. The “MIC” value [13] was 3.13 µg/mL, the “MIC” value [14] was 3.13 µg/mL and the “MIC” value [15] was 3.13 µg/mL. The “MIC” value [16] was 3.13 µg/mL, the “MIC” value [17] was 3.13 µg/mL and the “MIC S. aureus ATCC BAA 2094 (V)” value [18] was 6.25 µg/mL. For the same substance, the “MIC” value [19] was 6.25 µg/mL, the “MIC S. aureus ATCC BAA 2313 (XI)” value [20] was 6.25 µg/mL and the “MIC S. aureus ATCC BAA 44 (I)” value [21] was 6.25 µg/mL.
